These are literature values, as cited in publication PMC5979345, “Identification of an ACE-Inhibitory Peptide from Walnut Protein and Its Evaluation of the Inhibitory Mechanism” (International Journal of Molecular Sciences, 2018).

The subject of data set [1] is ACE. Particulars: from walnut protein digested by neutral proteinase As1.398, 45 °C, 5 h, pH 7.0. How it is done:
In the present study, the peptide EPNGLLLPQY was identified from the hydrolysate of walnut protein digested by […]. Moreover, there were several reports related to the peptides from walnut protein hydrolysates with ACE-inhibitory activity.

The subject of data set [2] is ACE. Particulars: identified from Stichopus horrens. How it is done: To further evaluate the active mechanism of the novel ACEI peptide, the inhibition pattern of the peptide, EPNGLLLPQY, against ACE was investigated by the Line weaver-Burk plot analysis method. […] When the EPNGLLLPQY was added to the r ...

With LPGRPPIKPWPL, the “ACE-inhibitory activity (in words)” value in data set [1] is reported as “ACE-inhibitory peptides”.

For WPERPPQIP, the “ACE-inhibitory activity (in words)” value in data set [1] is “ACE-inhibitory peptides”.

As to “SAAVGSP [food-derived peptide identified from Stichopus horrens]”, in data set [2], the Inhibition pattern result was “mixed-type of inhibition”.

As to “EVSQGRP [food-derived peptide identified from Stichopus horrens]”, in data set [2], the Inhibition pattern entry was “mixed-type of inhibition”.

For “VSRHFASYAN [food-derived peptide identified from Stichopus horrens]”, in data set [2], the Inhibition pattern entry was “mixed-type of inhibition”.
